Patent US8481521B2, “Methods of treating cell proliferative disorders” (Rigel Pharmaceuticals, Inc., priority 2005, dated 2013)

Assays:
[1] = Stability under acidic and neutral conditions; type: physicochemical; conditions: 37° C.
[2] = tested on: Flt-3; experiment: Flt-3 phosphorylation in MV4-11 tumor lysates (immunoprecipitation, Western blot); type: in vivo, human; conditions: 40 mg/kg VII, about two hours after final dose, vs vehicle
Experimental: Panel A is detection of phosphorylated Flt-3 in MV4-11 tumor lysates from mice approximately two hours after the final dose of VII or vehicle using anti-phosphotyrosine antibody on the left and anti-phospho-Flt-3 specific antibody on the right side of the blot. Additionally, a reprobe of the blot for the total Flt-3 levels are shown in Panel B.
Western blot analysis of phosphorylated Flt-3 was carried out as follows.
3. Weigh and normalize in 250 mg/l ml ice-cold RIPA buffer (Santa Cruz Biotechnology, sc-24948) containing protease inhibitor and phosphotase inhibitor cocktail (Sigma, P5726, 1 ml/100 ml lysis buffer).
Immunoprecipitation. • 1. Take 1 mg tumor lysate and add primary antibody 2 ug (Anti-Flt-3 S18, Santa Cruz, #sc-480) adjust volume to 500 ul with lysis buffer. Incubate with gentle rocking for 1 h at 4° C. • 2. Add protein A/G plus-agarose beads (Santa Cruz, SC-2003) 40 ul. Incubate with gentle rocking for 1 h at RT. • 3. Microcentrifuge for 30 second at 4° C. Wash pellet three times with 500 ul of 1× lysis buffer. Keep on ice during washes. • 4. Resuspend the pellet with 30 ul 2× Tris-Glysine SDS loading buffer+5 ul reducing agent 10× (Invitrogen). • 5. Heat the sample to 95-100° C. for 5 minutes. • 6. Store the sample at −80° C.
Western Blot Procedure. • 1. Load 20 ul of the sample on 8% Tris-Glysine gel. • 2. Run in 1× Tris-glysine SDS running buffer. • 3. […]

[3] = Pharmacokinetics / oral bioavailability in Sprague-Dawley rats; type: in vivo
Experimental: Prodrug Compound 4 was tested for oral bioavailability. For the study, the prodrug was dissolved in various vehicles (e.g. PEG 400 solution and CMC suspension) for intravenous and oral dosing in the rats. […] Following administration of the prodrug and/or drug, plasma samples were obtained and extracted. The plasma concentrations of the prodrug and/or drug were determined by high performance liquid chromatography/tandem mass spectrometry (LC/MS/MS) methods. Pharmacokinetic analyses were performed based on the plasma concentration data. The pharmacokinetic parameters of interest include Clearance (CL), Volume of distribution at steady-state (Vss), terminal half-life (t1/2), and oral bioavailability (% F).
Referring to FIG. 16, PK profiles are shown for IV and PO administration in Spraque-Dawley rats. For IV administration, Compound 4 was dissolved in PEG-400 and administered at a dose of 1 mg/kg.
FIG. 17 summarizes the PK parameters for the study described in FIG. 4.
FIG. 23 illustrates the absorption of prodrug Compound 4 from different vehicles.

For COc1cc(Nc2ncc(F)c(Nc3ccc4c(n3)N(COP(=O)(O)O)C(=O)C(C)(C)O4)n2)cc(OC)c1OC [Compound 4, N4-(2,2-dimethyl-4-[(dihydrogenphosphonoxy)methyl]-3-oxo-5-pyrido[1,4]oxazin-6-yl)-5-fluoro-N2-(3,4,5-trimethoxyphenyl)-2,4-pyrimidinediamine], the “stability under acidic and neutral conditions” value [1] was “stable”, the “Constitutive phosphorylation of Flt-3 in tumors” value [2] was “reduced” and the “prodrug in plasma after IV administration” value ([3]; 1 mg/kg IV in PEG-400) was “Rapid disappearance”. For the same molecule, the “absorption from different vehicles” value ([3]; PEG-400, CMC, powder in hard gelatin capsules) was “absorbed equally well”, the “plasma levels of drug metabolite Compound III after oral prodrug” value ([3]; PO in PEG-400) was “high levels” and the “prodrug present systemically after oral administration” value ([3]; PO in PEG-400) was “no prodrug Compound 4 was present systemically”. The “AUC/dose of drug Compound III exposure” value ([3]; oral Compound III 2.5 mg/kg or Compound 4 4 mg/kg in PEG-400) was “nearly identical”.
